Target: T1, hSMVT (Homo sapiens, UniProt Q9Y289)
T1 sequence (Q9Y289 1-635): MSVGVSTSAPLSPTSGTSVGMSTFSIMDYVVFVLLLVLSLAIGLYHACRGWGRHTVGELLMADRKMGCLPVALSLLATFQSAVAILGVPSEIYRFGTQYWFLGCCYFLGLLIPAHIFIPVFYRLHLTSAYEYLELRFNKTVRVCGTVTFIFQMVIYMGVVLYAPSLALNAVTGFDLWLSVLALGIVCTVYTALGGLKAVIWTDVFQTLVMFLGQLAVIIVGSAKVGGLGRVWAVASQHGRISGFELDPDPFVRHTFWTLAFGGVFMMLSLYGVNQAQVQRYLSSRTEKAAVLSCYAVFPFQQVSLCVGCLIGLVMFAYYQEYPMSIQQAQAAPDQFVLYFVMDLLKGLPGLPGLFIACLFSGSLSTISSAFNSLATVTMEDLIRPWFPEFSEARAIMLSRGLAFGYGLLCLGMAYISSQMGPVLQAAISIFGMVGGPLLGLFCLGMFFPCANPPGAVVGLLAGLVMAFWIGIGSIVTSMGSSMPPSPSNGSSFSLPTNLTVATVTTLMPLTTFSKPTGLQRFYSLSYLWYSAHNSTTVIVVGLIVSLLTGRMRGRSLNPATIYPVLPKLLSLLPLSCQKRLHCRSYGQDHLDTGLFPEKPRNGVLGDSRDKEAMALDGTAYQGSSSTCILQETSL
Experiment: Transport currents in SMVT-expressing Xenopus oocytes, normalized to biotin
Format: cell-based
Conditions: response relative to biotin, transporter-expressing oocytes, test compound 0.5 mM
From the text: The complete open reading frame of human ATBO+(SLC6A14) and SMVT (SLC5A6) were amplified from human cDNA prepared from liver or intestine mRNA. Gene-specific oligonucleotide primers were designed against Genbank sequences (AF151978 and NM-021095). Amplified PCR products were cloned into a modified version of the mammalian expression vector pcDNA3 (termed pMO) that was engineered to contain the 5′ and 3′ untranslated regions from the Xenopus beta-globin gene. All clones were completely sequenced and tested for function by transient transfection in HEK293 cells.
cRNA for oocyte expression was prepared by linearization of plasmid cDNA and in vitro transcription using T7 polymerase (Epicentre Ampliscribe kit). Xenopus oocytes were prepared and maintained as previously described (Collins et al., PNAS […]:5456-5460 (1997)) and injected with 10-30 ng RNA. Transport currents were measured 2-6 days later using two-electrode voltage-clamp (Axon Instruments). All experiments were performed using a modified oocyte Ringers solution (90 mM NaCl, 2 mM KCl, 1.8 mM CaCl2, 1 mM MgCl2, and 10 mM Na HEPES, pH 7.4; in Na^+-free solutions 90 mM choline chloride was substituted for NaCl). The membrane potential of oocytes was held at −60 mV and current traces acquired using PowerLab software (AD Instruments). Full 7-concentration dose-responses were performed for each compound. […] Half-maximal concentrations were calculated using non-linear regression curve fitting software (Prism) with the Hill co-efficient fixed to 1. To ensure that currents were specific for the over-expressed transporter, all compounds were tested against uninjected oocytes. Since both ATBO+ and SMVT require Na^+ for transport, we confirmed transport specificity by application of the compounds in a Na^+-free solution.
In vitro transport data for selected compounds on hSMVT-expressing cells

## CC(C)(N)C(=O)NCC1(CC(=O)O)CCCCC1 [Compound V, a-aminoisobutyryl gabapentin]
  % Max. (Biotin): 36%
